{"source": "patent US20080293626A1", "about": "“Pigment epithelium-derived factor as a therapeutic agent for vascular leakage” (The Johns Hopkins University, priority 2003, published 2008)", "key": {"[1]": {"tested_on": "VEGF-induced retinal vascular permeability", "experiment": "Fluorescein angiography after intravitreal co-injection with VEGF164", "assay_type": "in vivo, mouse (C57BL/6J)", "conditions": "mouse eye, co-injected intravitreally with 12.6 ng VEGF164 at 20-fold molar excess; 20 h after injection; qualitative", "experimental": "(§1) Intravitreal injection to assess bioactivity on vascular permeability. C57BL/6J mice, 6-8 weeks of age, were cared for in accordance with the Association for Research in Vision and Opthalmology Statement for the Use of Animals in Ophthalmic and Vision Research. For anesthesia, each received intramuscularly 20 mg/kg ketamine, 20 mg/kg xylazine and 800 mg/kg urethane in 0.3-0.4 ml of phosphate buffered saline (PBS, 1.06 mM KH2PO4, 0.15 M NaCl and 3.00 mM Na2HPO4, pH 7.4). Under 10× magnification, 1 μl of murine VEGF164 (12.6 ng/μl in PBS; R&D Systems, Minneapolis, Minn.) was delivered through a 20° beveled glass pipette, with a tip diameter of 13-20 μm. The contralateral eye received an equal volume of PBS alone or PBS containing 12.6 ng VEGF164, and a 20-fold molar excess of PEDF (232 ng), ACT (278 ng), HSP47 (278 ng), PEDFpep (28.1 ng), ACTpep (29.7 ng), or CHIMERApep (28.2 ng).\nFluorescein angiograghy. Twenty hours after intravitreal injections, each pupil was dilated with one drop of 1% atropine sulfate. After intraperitoneal injection of 0.1 ml of 25% fluorescein, successive retina photographs were taken with a Kowa Genesis camera. The first photograph was taken within 20 seconds of the intraperitoneal fluorescein injection. […] Fluorescein leakage manifests as indistinct vascular borders progressing to diffusely hazy fluorescence."}, "[2]": {"tested_on": "VEGF-induced retinal vascular permeability", "experiment": "Evans blue assay after intravitreal co-injection with VEGF164", "assay_type": "in vivo, mouse (C57BL/6J)", "conditions": "mouse eye, co-injected intravitreally with VEGF164 at 20-fold molar excess", "experimental": "as §1\nEvans Blue assay. […]\nTo assess the Evans blue-albumin concentration, the optical density of the retinal extract and plasma samples were measured at 620 nm and 740 nm. The retinal vasopermeability was calculated as the quantity of retinal Evans blue normalized to retinal dry weight, plasma Evans blue concentration, and circulation time by using the formula as described^32,44. […]"}, "[3]": {"tested_on": "VEGF164-stimulated bovine retinal capillary endothelial cell migration", "conditions": "8 h", "description": "BRCEC migration assay. Bovine retinal capillary endothelial cells (BRCEC) were isolated and cultured as described 45. […] Cells, between the fifth and ninth passage, were starved overnight in MEM with D-Val and 2% fetal bovine serum. Polycarbonate filters (10 μm pore-size, PVPF; Osmonics Inc., Minnetonka, Minn.) were coated with 100 μg/ml collagen. Quadruplicates with test samples in MEM D-Val (28 μl), and 10^4 cells in MEM D-Val (50 μl) were placed in the lower and upper wells, respectively, of the microchemotaxis chamber (NeuroProbe, Gaithersburg, Md.). After incubating 8 hours at 37° C., the non-migrated cells on the upper surface of the filter were removed, and the filters were stained with Harris' hematoxylin. For each of the test samples, one 400× field per quadrant of each of the quadruplicates was counted. From the total cell number in the 4 fields, the mean and standard error of the quadruplicate wells were calculated. Baseline migration equaled the number of migrated cells with MEM D-Val without any added proteins or peptides. The difference between baseline and the number of migrated cells with VEGF added equals maximal total migration."}}, "note": "Ends that are not written are not given here.", "data": [{"sequence": "VLLSPLSVATALSALSLGAEQRTESIIHRALYYDLISSPDIHGT [PEDFpep]", "values": [{"measurement": "effect on VEGF-induced fluorescein leakage / vascular permeability (fluorescein angiography)", "setting": "[1]", "result": "effectively inhibits"}, {"measurement": "inhibition of VEGF-induced retinal vascular permeability (Evans blue-albumin)", "setting": "[2]; 24 h, VEGF-induced increase = 100%, mean ±SE", "result": "83.7±17.1", "unit": "%"}, {"measurement": "effect on VEGF-induced vascular permeability by Evans blue assay", "setting": "[2]; qualitative statement", "result": "effectively inhibited"}, {"measurement": "IC50", "setting": "[3]", "result": 3, "unit": "nM"}]}]}
